The source of these data is US7589123B2, “Chemical compounds” (Phytopharm PLC, priority 2006, dated 2009).

The test system of one data set is guinea pig ileum. The experiment in a line: Effect of test compound alone on guinea pig ileum contraction (Assay 3). Here is the method: Duncan Hartley derived male guinea pigs (325±25 g) were suppressed by CO2 overexposure, the abdominal cavity was exposed and ileal segments were removed. Small strips of ileum were suspended in organ baths containing Krebs solution (composition in g/l: NaCl 6.89, KCl 0.35, CaCl2 0.277, KH2PO4 0.163, MgSO4.7H2O 0.296, NaHCO3 2.1 glucose 1.8). The solution was kept at 32° C. and gassed with O2 (95%)-CO2 (5%) to maintain pH at 7.4. Mechanical activity was recorded by means of isotonic transducers. A resting tension of 1 g was applied to muscle strips before being equilibrated for 1 h, prior to test compound addition. Each preparation was washed twice at 15 min intervals during the equilibration.
Histamine (1.7 μM; approximately EC60-70) or 5-hydroxytryptamine (5-HT, 2.6 μM; approximately EC60-70) was applied for 5 min and the amplitude of the contraction recorded. The histamine or 5-HT was then washed out until the ileal tissue returned to baseline. Five min after returning to baseline test compound (3 and 30 μM) was applied and the amplitude of the contraction (if any) was recorded. In the continuous presence of test compound, histamine or 5-HT was re-applied and the inhibition of the response was recorded.

For data set [1], the system named is histamine-induced contractions in guinea pig ileum. The experiment in a line: Inhibition of histamine-induced contractions in guinea pig ileum (Assay 3). The following applies: histamine 1.7 μM. In a few lines: (§1)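 Ileal strips from male Duncan Hartley guinea pigs were held at 1 g tension in 32° C oxygenated Krebs (pH 7.4) with isotonic transducers. After control contractions to 5-HT (2.6 μM) or histamine (1.7 μM), compound at 3 and 30 μM was added, its own effect noted, and agonist re-applied.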

Data set [2] has as its system 5-HT-induced contractions in guinea pig ileum. As to the kind of experiment: Inhibition of 5-HT-induced contractions in guinea pig ileum (Assay 3). The following applies: 5-HT 2.6 μM. In a few lines: as §1
The test system of data set [3] is α-smooth muscle actin (α-SMA) mRNA. The experiment in a line: Anti-remodelling activity in human lung fibroblasts (HFL1): TGFβ-induced α-SMA mRNA (Assay 4). Type of data set: cell-based. The following applies: HFL1 cells, TGFβ 10 ng/ml, 24 h. In a few lines:
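Real-time RT-PCR of α-SMA mRNA, GAPDH as reference, measured after 24 h exposure of low-serum-primed HFL1 cells to 10 ng/ml TGFβ with test compounds (3 and 30 μM) in 10% FBS medium. Readout is inhibition of TGFβ-driven α-SMA mRNA overexpression.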

The test system of data set [4] is IL-1α-induced PGE2 release. As to the kind of experiment: IL-1α-induced PGE2 release in human diploid lung fibroblasts (WI-38) (Assay 5). The following applies: WI-38 cells, IL-1α 1 nM, overnight. Type of data set: cell-based. In a few lines: (§2)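 Cell viability was read by Alamar Blue fluorescence (530/590 nm) after 4 h at 37 °C, following an overnight 37 °C incubation of human lung fibroblasts with 1 nM IL-1α and compound (3 or 30 μM) in 10% FBS MEM, pH 7.3. Supernatant PGE2 was measured by radioimmunoassay to derive percent inhibition.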

A further data set concerns WI-38 cells. The experiment in a line: Viability of WI-38 cells, Alamar Blue (Assay 5). Type of data set: cell-based, human. Summed up: as §2
A general note: Alamar Blue is a resazurin reagent that responds to reducing activity.

Another data set deals with T1, 5-lipoxygenase (Homo sapiens, UniProt P09917).
T1 construct: endogenous in cells; host or cells: human peripheral blood mononuclear leukocytes (PBMLs)
T1 sequence (P09917 1-674): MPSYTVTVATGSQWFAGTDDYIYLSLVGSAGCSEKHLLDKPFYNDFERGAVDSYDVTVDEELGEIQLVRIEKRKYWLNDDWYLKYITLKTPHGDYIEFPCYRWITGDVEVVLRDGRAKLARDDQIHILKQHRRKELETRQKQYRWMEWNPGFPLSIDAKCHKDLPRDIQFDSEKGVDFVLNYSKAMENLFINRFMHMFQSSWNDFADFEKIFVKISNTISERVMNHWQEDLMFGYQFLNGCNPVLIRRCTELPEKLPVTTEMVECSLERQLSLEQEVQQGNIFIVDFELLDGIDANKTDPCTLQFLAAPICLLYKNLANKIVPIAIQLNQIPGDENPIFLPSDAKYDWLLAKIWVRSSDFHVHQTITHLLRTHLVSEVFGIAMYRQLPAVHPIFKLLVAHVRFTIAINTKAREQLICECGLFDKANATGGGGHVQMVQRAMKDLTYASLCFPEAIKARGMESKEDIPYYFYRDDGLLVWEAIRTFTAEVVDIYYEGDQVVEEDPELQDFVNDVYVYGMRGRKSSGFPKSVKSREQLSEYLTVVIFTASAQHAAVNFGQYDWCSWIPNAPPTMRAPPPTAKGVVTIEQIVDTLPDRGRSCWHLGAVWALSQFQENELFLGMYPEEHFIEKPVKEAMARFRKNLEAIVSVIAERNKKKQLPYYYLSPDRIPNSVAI
As to the kind of experiment: 5-lipoxygenase activity (LTB4) in human peripheral blood mononuclear leukocytes (Assay 6). The format is cell-based. The note with it: human PBMLs, A23187 30 μM. In a few lines: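 LTB4 in supernatant quantified by EIA after 15 min at 37° C. in HBSS, pH 7.4, where Ficoll-isolated human PBMLs (5×10^6) received ionophore A23187 (30 μM) and test compound (3 and 30 μM) or 0.1% DMSO vehicle.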

Data set [5] deals with T2, TRPV1 receptor (Rattus norvegicus, UniProt O35433). The experiment in a line: TRPV1 modulation in DRG neurones: CGRP release in absence and presence of capsaicin (Assay 2). The note with it: for Effect of test compounds on capsaicin (1 μM)-induced CGRP release (%): −ve: inhibition, +ve: potentiation of capsaicin response; for CGRP release (% of capsaicin (1 μM) response): rat DRG sensory neurones, 20 min. Type of data set: cell-based. Also on record: The culture used for this experiment contained sensory neurones, Schwann cells and fibroblasts; endogenous in cells; host or cells: primary rat DRG sensory neurone culture (with Schwann cells and fibroblasts).

Data set [6] addresses T2, TRPV1 receptor. As to the kind of experiment: TRPV1 receptor modulation in the rat vas deferens, EFS-induced contraction (Assay 1). The following applies: electrical field stimulation. Here is the method:
Wistar derived male rats (275±25 g) were suppressed by CO2 overexposure. The vas deferens was removed, placed in Krebs solution, pH 7.4 (composition in g/l: NaCl 6.89, KCl 0.35, CaCl2 0.277, KH2PO4 0.163, MgSO4.7H2O 0.296, NaHCO3 2.1 glucose 1.8) and excess fat and connective tissue removed. The portion of the vas deferens closest to the prostate was cut in half and each half was placed under 1 g tension in a 10 ml bath containing Krebs solution at 32° C. The tissue was contracted by electrical field stimulation (EFS; 60% of maximum stimulation, 0.015 Hz, 0.5 ms in duration) and contractile responses were measured.

T2 sequence (O35433 whole entry): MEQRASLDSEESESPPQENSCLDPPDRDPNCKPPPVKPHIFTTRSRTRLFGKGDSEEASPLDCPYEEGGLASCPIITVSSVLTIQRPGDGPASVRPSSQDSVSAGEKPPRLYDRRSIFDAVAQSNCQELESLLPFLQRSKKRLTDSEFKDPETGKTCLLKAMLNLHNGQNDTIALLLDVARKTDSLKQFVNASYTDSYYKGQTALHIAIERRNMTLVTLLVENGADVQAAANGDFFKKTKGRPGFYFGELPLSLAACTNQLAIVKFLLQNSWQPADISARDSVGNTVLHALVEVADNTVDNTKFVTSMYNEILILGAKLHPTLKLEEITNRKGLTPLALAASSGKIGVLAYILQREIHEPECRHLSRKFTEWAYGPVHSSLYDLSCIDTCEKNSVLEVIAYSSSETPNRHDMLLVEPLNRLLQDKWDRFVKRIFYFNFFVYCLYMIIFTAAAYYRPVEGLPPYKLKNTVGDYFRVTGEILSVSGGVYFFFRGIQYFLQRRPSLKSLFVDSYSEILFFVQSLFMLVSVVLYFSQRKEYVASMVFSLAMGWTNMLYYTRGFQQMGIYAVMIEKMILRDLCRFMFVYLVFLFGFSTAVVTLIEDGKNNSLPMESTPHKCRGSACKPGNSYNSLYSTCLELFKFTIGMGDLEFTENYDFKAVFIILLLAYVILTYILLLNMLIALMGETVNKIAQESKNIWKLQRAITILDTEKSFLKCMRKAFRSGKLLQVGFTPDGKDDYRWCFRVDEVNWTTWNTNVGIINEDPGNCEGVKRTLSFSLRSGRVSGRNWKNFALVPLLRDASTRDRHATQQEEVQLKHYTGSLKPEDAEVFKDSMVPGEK

As for `CCC(=O)CC(=O)CCc1ccc(O)c(OC)c1` [3-gingerdione, reference compound], the “Contraction of guinea pig ileum relative to 5-HT-induced contraction” value in the data set with guinea pig ileum (3 μM) and in the data set with guinea pig ileum (30 μM) was 0 each time. Moreover, the “Contraction of guinea pig ileum relative to histamine-induced contraction” value in the data set with guinea pig ileum (3 μM) and in the data set on guinea pig ileum (30 μM) was 0 each time. The “Inhibition of histamine-induced contraction (%)” value is 5% in [1] (3 μM) and 14% in [1] (30 μM). Besides, the “Inhibition of 5-HT-induced contraction (%)” value is 0% in [2] (3 μM) and 5% in data set [2] (30 μM). Moreover, the “Inhibition of α-SMA mRNA synthesis (%)” value is 13% in data set [3] (3 μM) and 24% in data set [3] (30 μM). Further, the “Inhibition of IL-1α-induced PGE2 release (%)” value in data set [4] (3 μM) turned out to be 61%; in data set [4] (30 μM), 99%. In addition, the figures for the “Decrease in cell viability (%)” value in the data set on WI-38 cells (3 μM) and in the data set with WI-38 cells (30 μM) were 4% and 5%, respectively. Further, the results for the “Inhibition of 5-LO (%)” value on 5-lipoxygenase (3 μM) and on 5-lipoxygenase (30 μM) were −5% and 73%, respectively. Further, the “Effect of test compounds on capsaicin (1 μM)-induced CGRP release (%)” value (shortened to “Effect of test compounds on capsaicin … (%)”) was −37% at TRPV1 receptor [5] (3 μM with capsaicin 1 μM) and −43% at TRPV1 receptor [5] (30 μM with capsaicin 1 μM). Further, the “CGRP release (% of capsaicin (1 μM) response)” value is listed as 17% at TRPV1 receptor [5] (test compound alone 3 μM) and 18% at TRPV1 receptor [5] (test compound alone 30 μM).
In the case of `COc1cc(CCC(=O)CC(=O)C(C)C)ccc1O` [Compound 1], the “Inhibition of EFS response relative to capsaicin” value on TRPV1 receptor [6] is on record as 27%. Besides, the “Contraction of guinea pig ileum relative to 5-HT-induced contraction” value in the data set on guinea pig ileum (3 μM) and in the data set on guinea pig ileum (30 μM) was 0 each time. In addition, the “Contraction of guinea pig ileum relative to histamine-induced contraction” value in the data set on guinea pig ileum (3 μM) and in the data set on guinea pig ileum (30 μM) was 0 in each case. Moreover, the “Inhibition of histamine-induced contraction (%)” value in data set [1] (3 μM) is recorded as 0%; in [1] (30 μM), 11%. The figures for the “Inhibition of 5-HT-induced contraction (%)” value in data set [2] (3 μM) and in data set [2] (30 μM) were 0% and 20%, respectively. Also, the “Inhibition of α-SMA mRNA synthesis (%)” value came to 12% in data set [3] (3 μM) and 34% in [3] (30 μM). The “Inhibition of IL-1α-induced PGE2 release (%)” value in data set [4] (3 μM) was determined as 68%; in data set [4] (30 μM), 101%. In addition, the “Decrease in cell viability (%)” value in the data set with WI-38 cells (3 μM) is 3%; in the data set on WI-38 cells (30 μM), −10%. The “Inhibition of 5-LO (%)” value is 26% at 5-lipoxygenase (3 μM) and 63% at 5-lipoxygenase (30 μM). Moreover, the “Effect of test compounds on capsaicin … (%)” value is −36% at TRPV1 receptor [5] (3 μM with capsaicin 1 μM) and −24% at TRPV1 receptor [5] (30 μM with capsaicin 1 μM). In addition, the figures for the “CGRP release (% of capsaicin (1 μM) response)” value at TRPV1 receptor [5] (test compound alone 3 μM) and at TRPV1 receptor [5] (test compound alone 30 μM) were 26% and 41%, respectively.
Regarding `COc1cc(CCC(=O)CC(=O)c2ccc(Cl)c(Cl)c2)ccc1O` [Compound 23, 1-(3,4-Dihlorophenyl)-5-(4-hydroxy-3-methoxyphenyl)pentane-1,3-dione], the “Contraction of guinea pig ileum relative to 5-HT-induced contraction” value in the data set with guinea pig ileum (3 μM) and in the data set on guinea pig ileum (30 μM) was 0 in each case. The “Contraction of guinea pig ileum relative to histamine-induced contraction” value in the data set with guinea pig ileum (3 μM) and in the data set on guinea pig ileum (30 μM) was 0 each time. Moreover, the “Inhibition of histamine-induced contraction (%)” value was 8% in data set [1] (3 μM) and 37% in [1] (30 μM). In addition, the “Inhibition of 5-HT-induced contraction (%)” value in data set [2] (3 μM) is given as 11%; in [2] (30 μM), 25%. In addition, the “Inhibition of α-SMA mRNA synthesis (%)” value in [3] (3 μM) was determined as 13%; in data set [3] (30 μM), 79%. The “Inhibition of IL-1α-induced PGE2 release (%)” value in [4] (3 μM) is listed as 84%; in [4] (30 μM), 100%. In addition, the “Decrease in cell viability (%)” value with WI-38 cells (3 μM) worked out at 6%; with WI-38 cells (30 μM) it was 16%. Also, the “Inhibition of 5-LO (%)” value is given as 63% at 5-lipoxygenase (3 μM) and 98% at 5-lipoxygenase (30 μM). The results for the “Effect of test compounds on capsaicin … (%)” value at TRPV1 receptor [5] (3 μM with capsaicin 1 μM) and on TRPV1 receptor [5] (30 μM with capsaicin 1 μM) were −2% and 47%, respectively. Besides, the results for the “CGRP release (% of capsaicin (1 μM) response)” value on TRPV1 receptor [5] (test compound alone 3 μM) and at TRPV1 receptor [5] (test compound alone 30 μM) were 84% and 242%, respectively.
For the molecule `COc1cc(CCC(=O)CC(=O)c2ccc(Cl)cc2Cl)ccc1O` [Compound 24, 1-(2,4-Dihlorophenyl)-5-(4-hydroxy-3-methoxyphenyl)pentane-1,3-dione], the “Contraction of guinea pig ileum relative to 5-HT-induced contraction” value in the data set with guinea pig ileum (3 μM) and in the data set with guinea pig ileum (30 μM) was 0 each time. The “Contraction of guinea pig ileum relative to histamine-induced contraction” value in the data set with guinea pig ileum (3 μM) and in the data set on guinea pig ileum (30 μM) was 0 each time. Also, the figures for the “Inhibition of histamine-induced contraction (%)” value in data set [1] (3 μM) and in [1] (30 μM) were 12% and 59%, respectively. Further, the figures for the “Inhibition of 5-HT-induced contraction (%)” value in [2] (3 μM) and in [2] (30 μM) were 5% and 98%, respectively. Moreover, the “Inhibition of α-SMA mRNA synthesis (%)” value was determined as 8% in data set [3] (3 μM) and 80% in [3] (30 μM). For the same molecule, the figures for the “Inhibition of IL-1α-induced PGE2 release (%)” value in data set [4] (3 μM) and in data set [4] (30 μM) were 93% and 100%, respectively. Further, the “Decrease in cell viability (%)” value in the data set on WI-38 cells (3 μM) came out at 7%; in the data set with WI-38 cells (30 μM), 26%. Besides, the “Inhibition of 5-LO (%)” value came to 45% on 5-lipoxygenase (3 μM) and 97% at 5-lipoxygenase (30 μM). Further, the “Effect of test compounds on capsaicin … (%)” value at TRPV1 receptor [5] (3 μM with capsaicin 1 μM) is −13%; at TRPV1 receptor [5] (30 μM with capsaicin 1 μM), 2%. Besides, the “CGRP release (% of capsaicin (1 μM) response)” value on TRPV1 receptor [5] (test compound alone 3 μM) was 92%; at TRPV1 receptor [5] (test compound alone 30 μM), 193%.
